Reference: paper PMC8125951, “Exploring the 2′-Hydroxy-Chalcone Framework for the Development of Dual Antioxidant and Soybean Lipoxygenase Inhibitory Agents” (Molecules, 2021)
pIC50: −log10 of the molar value. Read-outs that look alike come from different tables or passages of the source.

Experiments:
[1] = Interaction with the stable free radical DPPH (reducing activity)
Method: The first assay refers to the interaction of the compounds with the stable free radical DPPH and it is a fast, simple, cost-effective, and widely used method, where the DPPH radical reacts directly with the antioxidant and is decolorized. This interaction indicates their radical scavenging ability in an iron-free system. The scavenging effect of the synthesized analogues on the DPPH radical was evaluated according to the methods of Hadjipavlou et al..
To an ethanolic solution of DPPH (100 μM) in absolute ethanol, an equal volume of the compounds dissolved in DMSO was added (100 μM). […]

[2] = Inhibition of linoleic acid lipid peroxidation induced by AAPH
Source text: The second technique is based on the ability of the compounds to inhibit lipid peroxidation of linoleic acid induced by 2,2′-Azobis(2-amidinopropane) dihydrochloride (AAPH) radical (Table 2). AAPH-induced linoleic acid oxidation has been developed as a quick and reliable method for measuring the antioxidant activity. The thermal free radical producer (AAPH) generates free radicals in the solution which cause the oxidation of linoleic acid, and the method is a measure of how effective antioxidants protect against lipid peroxidation in vitro. Oxidation of linoleic acid by AAPH is followed by UV spectrophotometry in a highly diluted sample [61].
2,2′-Azobis(2-amidinopropane) dihydrochloride (AAPH) was used as a free radical initiator. Ten microliters of the 16 mM linoleic acid sodium salt solution was added to the UV cuvette containing 0.93 mL of 0.05 M phosphate buffer, pH 7.4 prethermostated at 37 °C. The oxidation reaction was initiated at 37 °C under air by the addition of 50 μL of 40 mM AAPH solution. Oxidation was carried out in the presence of the synthesized compounds (10 μL, from a stock solution of 10 mM in DMSO). In the assay without antioxidant, lipid oxidation was measured in the presence of the same level of DMSO.

soybean lipoxygenase = target: T1, soybean lipoxygenase (Glycine max, UniProt P08170); test: Soybean LOX inhibition study in vitro; assay type: biochemical
T1 sequence (P08170 1-839): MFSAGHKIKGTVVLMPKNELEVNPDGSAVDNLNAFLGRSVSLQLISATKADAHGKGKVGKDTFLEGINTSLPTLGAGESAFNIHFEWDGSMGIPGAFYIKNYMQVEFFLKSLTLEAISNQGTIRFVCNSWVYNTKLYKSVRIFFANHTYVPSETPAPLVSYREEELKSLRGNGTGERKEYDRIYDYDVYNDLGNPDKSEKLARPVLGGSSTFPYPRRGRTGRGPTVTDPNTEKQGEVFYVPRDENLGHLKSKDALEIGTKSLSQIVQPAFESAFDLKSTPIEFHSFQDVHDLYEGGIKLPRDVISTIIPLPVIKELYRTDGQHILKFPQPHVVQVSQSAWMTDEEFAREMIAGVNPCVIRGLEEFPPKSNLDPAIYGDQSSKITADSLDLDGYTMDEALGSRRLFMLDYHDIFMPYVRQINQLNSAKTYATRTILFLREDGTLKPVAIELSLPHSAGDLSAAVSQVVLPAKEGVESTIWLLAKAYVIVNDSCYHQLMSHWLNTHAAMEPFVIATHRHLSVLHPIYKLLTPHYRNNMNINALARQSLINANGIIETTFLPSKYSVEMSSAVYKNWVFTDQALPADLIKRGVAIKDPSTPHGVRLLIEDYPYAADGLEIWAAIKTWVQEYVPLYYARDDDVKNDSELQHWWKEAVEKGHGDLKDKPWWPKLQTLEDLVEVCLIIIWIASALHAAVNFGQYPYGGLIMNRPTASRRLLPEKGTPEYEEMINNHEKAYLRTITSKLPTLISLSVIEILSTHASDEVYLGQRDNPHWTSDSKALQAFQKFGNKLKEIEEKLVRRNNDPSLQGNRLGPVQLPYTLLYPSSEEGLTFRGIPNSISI
Method: Furthermore, as an indication of their anti-inflammatory activity, all the molecules were tested as inhibitors of soybean lipoxygenase (LOX). The enzyme lipoxygenase catalyzes the first two steps in the metabolism of arachidonic acid, which is cleaved from membrane phospholipids to leukotrienes (LTB4). LTB4 generation is considered to be important in the pathogenesis of neutrophil-mediated inflammatory diseases. For this study, the UV absorbance-based soybean LOX assay was used, which is a plant enzyme with satisfactory homology with the human 5-LOX [61, 62, 63, 64, 65, 66].
The tested compounds dissolved in DMSO were incubated at room temperature with sodium linoleate (0.1 mL) and 0.2 mL of enzyme solution ([…] in saline) in Tris buffer pH 9.

[3] = Competition of the tested compounds with DMSO for hydroxyl radicals; conditions: 100 μM
Source text: Among the reactive oxygen species (ROS), the hydroxyl (^•OH) free radical is possibly the most toxic, reacting with several biological important molecules such as DNA, lipids, or carbohydrates. Polyunsaturated fatty acids are particularly vulnerable by free radicals. Iron released from damaged cells is more likely to be readily available to catalyze the generation of ^•OH radicals. Thus, we tried to test the ability of our compounds to scavenge hydroxyl radicals determining the competition of selected chalcones and aurones with DMSO for hydroxyl radicals. Hydroxyl radicals were generated using the Fe^3+/ascorbic acid system and expressed as a percentage inhibition of formaldehyde production in the presence of each compound at 100 μM.
The hydroxyl radicals generated by the Fe^3+ / ascorbic acid system, were detected by the determination of formaldehyde produced from the oxidation of DMSO (Table 2). A negative control using the same % DMSO was used. Trolox was used as reference compound [75].

[4] = ABTS radical cation decolorization assay; conditions: 100 μM
Method: The ABTS radical cation decolorization assay was used as another antioxidant activity estimation protocol (Table 2). Oxidation of ABTS with potassium persulfate generates directly the radical with no involvement of an intermediate radical, which is then reduced upon adding electron-donating antioxidants.
In order to produce the ABTS radical cation (ABTS^+·), ABTS stock solution in water (7 mM) was mixed with potassium persulfate (2.45 mM) and left in the dark at room temperature for 12–16 h before use. Our published experimental technique was used (1). The results are recorded after 1 min of the mixing solutions at 734 nm. The results were compared to the appropriate standard inhibitor Trolox.

[5] = read-out: Inhibition of Soybean Lipoxygenase IC50

SMILES	Interaction with the Free Radical DPPH (%) ([1]; 100 μM, 20 min)	Interaction with the Free Radical DPPH (%) ([1]; 100 μM, 60 min)	Inhibition of Lipid Peroxidation of Linoleic Acid Induced by AAPH Radical (%) ([2]; 0 min)	Inhibition of Lipid Peroxidation of Linoleic Acid Induced by AAPH Radical (%) ([2]; 100 μM)	Inhibition of Lipid Peroxidation of Linoleic Acid Induced by AAPH Radical (%) ([2]; 3 min)	Inhibition of Lipid Peroxidation of Linoleic Acid Induced by AAPH Radical (%) ([2]; 6 min)	Inhibition of Lipid Peroxidation of Linoleic Acid Induced by AAPH Radical (%) ([2]; 9 min)	pIC50 (soybean lipoxygenase; [5])	pIC50 (soybean lipoxygenase)	Interaction with the Free Radical DPPH (%) ([1]; 0 min)	Interaction with the Free Radical DPPH (%) ([1]; 3 min)	Interaction with the Free Radical DPPH (%) ([1]; 6 min)	Interaction with the Free Radical DPPH (%) ([1]; 9 min)	HO· (%) competition with DMSO for hydroxyl radicals [3] [%]	ABTS+· % [4]	Inhibition of Soybean Lipoxygenase 100 μM (%) (soybean lipoxygenase; at 100 μM)
COCOc1ccc(/C=C/C(=O)c2cc(Br)cc(Br)c2O)cc1OCOC [Compound 3i, 3′,5′-bromo-3,4-dimethoxymethoxy-2′-hydroxy-chalcone]	totally inactive and no	no	95.6	93.0%	98.6	96.9	99.2	4.17	–	–	–	–	–	–	–	–
O=C(O)c1ccc(/C=C/C(=O)c2ccccc2O)cc1 [Compound 3j, 4-carboxy-2′-hydroxy-chalcone]	no	no	–	no	–	–	–	4.00	–	–	–	–	–	–	–	–
O=C(O)c1ccc(/C=C/C(=O)c2cc(Cl)ccc2O)cc1 [Compound 3k, 4-carboxy-5′-chloro-2′-hydroxy-chalcone]	no	no	–	no	–	–	–	4.17	–	–	–	–	–	–	–	–
O=C(/C=C/c1ccccc1)c1ccccc1O [Compound 3l, 2′-hydroxy-chalcone]	no	no	87.6	87.6%	93.2	95.7	94.3	–	4.00	–	–	–	–	–	–	–
COC(=O)c1ccc(/C=C/C(=O)c2ccccc2O)cc1 [Compound 5, 4-Methoxycarbonyl-2′-Hydroxy-Chalcone]	no	no	95.4	100%	96.9	92.5	98.9	4.00	–	–	–	–	–	–	–	–
O=C1/C(=C/c2cc(O)c(O)cc2O)Oc2ccccc21 [Compound 7b, 2′,4′,5′-Trihydroxy-Aurone]	100%	100%	–	–	–	–	–	–	–	98.2	99.3	99.5	99.8	77	no	no
C[C@H](Cc1ccc(O)c(O)c1)[C@@H](C)Cc1ccc(O)c(O)c1 [NDGA, Nordihydroguaiaretic acid, reference compound]	87.0%	93.0%	–	–	–	–	–	–	–	–	–	–	–	–	–	–
Cc1c(C)c2c(c(C)c1O)CCC(C)(C(=O)O)O2 (stereo not drawn) [Trolox, reference compound]	93.0%	93.6%	–	92.0%	–	–	–	–	–	–	–	–	–	82	93%	–
